# Assay results as given in US11634425B2, “Pharmaceutical compounds” (priority 2019, dated 2023).
# Where two headings read alike, the source gives them in different places.
# Tests used:
# Cell cytotoxicity (CC50) = format: cell-based; conditions: human; mean of at least two experiments
# Excerpt: (§1) Compounds were subjected to RSV plaque reduction assays according to the following protocol. Plaque EC50 and cell toxicity CC50 values are a mean of at least two experiments and figures are rounded to whole units.
# (§2) Plates were scanned and analysed using the Immunospot S6 Macro analyser, which is equipped with BioSpot analysis software for counting immunostained plaques (virospots). Plaque counts were used to calculate % c infection relative to the mean of the plaque count in the virus control wells for RSV. The EC50 value was calculated as 50% reduction in signal, respectively, by interpolation of inhibition curves fitted with a 4-parameter nonlinear regression with a variable slope in Dotmatics. Plaque EC50 and cell toxicity CC50 values are a mean of at least two experiments and figures are rounded to whole units.
# in vitro = in vitro ADME; conditions: microsomes, pH 7.4, 1 μM compound, 0.5 mg/mL protein, read-out: Liver Microsomal Stability t1/2
# Description: Compounds were subjected to the following assays to investigate liver microsomal stability and hepatocyte stability.
# Microsomal Incubation: Experimental Procedure
# Pooled liver microsomes were purchased from a reputable commercial supplier and stored at −80° C. prior to use. Microsomes (final protein concentration 0.5 mg/mL), 0.1 M phosphate buffer pH 7.4 and test compound (final substrate concentration 1 μM; final DMSO concentration 0.25%) were pre-incubated at 37° C. prior to the addition of NADPH (final concentration 1 mM) to initiate the reaction. The final incubation volume was 50 μL. A control incubation was included for each compound tested where 0.1 M phosphate buffer pH 7.4 was added instead of NADPH (minus NADPH). Two control compounds were included with each species. All incubations were performed singularly for each test compound. Each compound was incubated for 0, 5, 15, 30 and 45 min. The control (minus NADPH) was incubated for 45 min only. The reactions were stopped by transferring incubate into acetonitrile at the appropriate time points, in a 1:3 ratio. The termination plates are centrifuged at 3,000 rpm for 20 min at 4° C. to precipitate the protein. Following protein precipitation, the sample supernatants were combined in cassettes of up to 4 compounds, internal standard added, and samples analysed by LC-MS/MS. From a plot of ln peak area ratio (compound peak area/internal standard peak area) against time, the gradient of the line was determined. Subsequently, half-life (t1/2) and intrinsic clearance (CLint) were calculated.
# RSV A2 = assay: RSV plaque reduction assay; format: cell-based, respiratory syncytial virus (RSV); conditions: human respiratory syncytial virus, HepG2, Hep-G2 cells, mean of at least two experiments
# Description: as §1
# Hep-G2 cells (ECACC, 85011430) were passaged in flasks and seeded in 24-well plates in DMEM containing antibiotics and supplemented with 10% FBS. During inoculation and subsequent incubation, cells were cultured in DMEM containing 2% FBS. 100 plaque forming unit/well of RSV (RSV A2 ECACC, 0709161v) was mixed with eight serial dilutions of compound. Subsequently, 100 μL of the virus/compound mixtures was added to confluent Hep-G2 cell monolayers. The cells and virus/compound mixtures were incubated at 37° C. in a humidified 5% CO2 incubator for 2 h prior to removal of the inoculum and addition of 1 mL of overlay (DMEM containing 2% FBS and 0.8% CMC) containing compound dilutions. The cells and were incubated at 37° C. in a humidified 5% CO2 incubator for 2 days.
# Cells were washed with PBS before adding 75/25% […] EtOH/MeOH, for 3 min. Fixative was removed and plates were washed with PBS. A pre-titrated amount of the primary antibody was added in 200 μL PBS/2% milk powder, and plates incubated for 90 min at 37° C. The plates were washed 3 times with PBS/0.05% Tween20 before addition of rabbit anti-goat horse radish peroxidase in 200 μL PBS/2% milk powder, and incubated for 1 h at 37° C. Following three wash steps with PBS/0.05% Tween20, 200 μL ready-to-use TrueBlue was added and plates were incubated at rt for 10-15 min before washing with water. After removal of water, plates were air-dried in the dark.
# as §2
Compound,CC50 (Cell cytotoxicity (CC50)) [µM],half-life at 1 μM (in vitro; dog) [h],half-life at 1 μM (in vitro; human) [h],half-life at 1 μM (in vitro; rat) [h],EC50 (RSV A2) [µM]
"O=C(N[C@H]1N=C(c2ccccc2)c2cccc(F)c2NC1=O)c1c(-c2cccc(F)c2F)nn2cccnc12 [Example 42, 2-(2,3-Difluorophenyl)-N-[(3S)-9-fluoro-2-oxo-5-phenyl-1,3-dihydro-1,4-benzodiazepin-3-yl]pyrazolo[1,5-a]pyrimidine-3-carboxamide]",> 14,12.2,> 2.33,2.83,0.041
"CC(C)c1ccc(-c2nn3cccnc3c2C(=O)N[C@H]2N=C(c3ccccc3)c3cccc(F)c3NC2=O)cn1 [Example 59, 2-(6-Propan-2-ylpyridin-3-yl)-N-[(3S)-9-fluoro-2-oxo-5-phenyl-1,3-dihydro-1,4-benzodiazepin-3-yl]pyrazolo[1,5-a]pyrimidine-3-carboxamide]",> 25,1.51,2.28,1,0.06
"CN1CC(Oc2ccc3nc(-c4ccccc4F)c(C(=O)N[C@H]4N=C(c5ccccc5)c5cccc(F)c5NC4=O)n3n2)C1 [Example 108, N-[(3S)-9-Fluoro-2-oxo-5-phenyl-1,3-dihydro-1,4-benzodiazepin-3-yl]-2-(2-fluorophenyl)-6-(1-methylazetidin-3-yl)oxyimidazo[1,2-b]pyridazine-3-carboxamide]",21.9,2.88,1.3,1.14,0.084
"O=C(N[C@H]1N=C(c2ccccc2)c2ccccc2NC1=O)c1c(-c2cccc(F)c2F)nn2cccnc12 [Example 43, 2-(2,3-Difluorophenyl)-N-[(3S)-2-oxo-5-phenyl-1,3-dihydro-1,4-benzodiazepin-3-yl]pyrazolo[1,5-a]pyrimidine-3-carboxamide]",> 25,0.97,3.35,41.5,0.06
"[2H]C([2H])([2H])Oc1ccc2nc(-c3ccccc3)c(C(=O)N[C@H]3N=C(c4ccccc4)c4cccc(F)c4NC3=O)n2n1 [Example 114, N-[(3S)-9-fluoro-2-oxo-5-phenyl-1,3-dihydro-1,4-benzodiazepin-3-yl]-2-phenyl-6-(trideuteriomethoxy)imidazo[1,2-b]pyridazine-3-carboxamide]",> 25,5.5,4.1,2.03,0.039
"O=C(N[C@H]1N=C(c2ccccc2)c2ccccc2NC1=O)c1c(-c2ccc(F)cc2F)nc2cccnn12 [Example 88, 2-(2,4-Difluorophenyl)-N-[(3S)-2-oxo-5-phenyl-1,3-dihydro-1,4-benzodiazepin-3-yl]imidazo[1,2-b]pyridazine-3-carboxamide]",> 25,1.27,> 2.33,3.37,0.02
"Cc1ccc2nc(-c3ccncc3F)c(C(=O)N[C@H]3N=C(c4ccccc4)c4ccccc4NC3=O)n2n1 [Example 99, 2-(3-Fluoropyridin-4-yl)-6-methyl-N-[(3S)-2-oxo-5-phenyl-1,3-dihydro-1,4-benzodiazepin-3-yl]imidazo[1,2-b]pyridazine-3-carboxamide]",> 25,,,,0.051
"CC1COCCN1c1ccc(-c2nn3cccnc3c2C(=O)N[C@H]2N=C(c3ccccc3)c3ccccc3NC2=O)cn1 (stereo partly drawn) [Example 67, 2-[6-(3-Methylmorpholin-4-yl)pyridin-3-yl]-N-[(3S)-2-oxo-5-phenyl-1,3-dihydro-1,4-benzodiazepin-3-yl]pyrazolo[1,5-a]pyrimidine-3-carboxamide]",> 25,,,,0.141
"O=C(N[C@H]1N=C(c2ccccc2)c2ccccc2NC1=O)c1c(-c2ccccc2F)nn2ccc(N3CCCC3)nc12 [Example 41, 2-(2-Fluorophenyl)-N-[(3S)-2-oxo-5-phenyl-1,3-dihydro-1,4-benzodiazepin-3-yl]-5-pyrrolidin-1-ylpyrazolo[1,5-a]pyrimidine-3-carboxamide]",> 25,,,,0.08
"CCNc1ccc(-c2nn3cccnc3c2C(=O)N[C@H]2N=C(c3ccccc3)c3ccccc3NC2=O)c(F)n1 [Example 65, 2-[6-(Ethylamino)-2-fluoropyridin-3-yl]-N-[(3S)-2-oxo-5-phenyl-1,3-dihydro-1,4-benzodiazepin-3-yl]pyrazolo[1,5-a]pyrimidine-3-carboxamide]",> 25,,,,0.018
"CC(C)Nc1ccc(-c2nn3cccnc3c2C(=O)N[C@H]2N=C(c3ccccc3)c3ccccc3NC2=O)cc1 [Example 13, N-[(3S)-2-Oxo-5-phenyl-1,3-dihydro-1,4-benzodiazepin-3-yl]-2-[4-(propan-2-ylamino)phenyl]pyrazolo[1,5-a]pyrimidine-3-carboxamide]",> 25,,,,0.094
"COc1ccc(F)c(-c2nn3cccnc3c2C(=O)N[C@H]2N=C(c3ccccc3)c3cccc(F)c3NC2=O)c1 [Example 8, 2-(2-Fluoro-5-methoxyphenyl)-N-[(3S)-9-fluoro-2-oxo-5-phenyl-1,3-dihydro-1,4-benzodiazepin-3-yl]pyrazolo[1,5-a]pyrimidine-3-carboxamide]",> 25,,,,0.054
"[2H]C([2H])([2H])Oc1ccc2nc(-c3ccc(CC)nc3)c(C(=O)N[C@H]3N=C(c4ccccc4)c4cccc(F)c4NC3=O)n2n1 [Example 123, 2-(6-Ethylpyridin-3-yl)-N-[(3S)-9-fluoro-2-oxo-5-phenyl-2,3-dihydro-1H-1,4-benzodiazepin-3-yl]-6-(^2H3)methoxyimidazo[1,2-b]pyridazine-3-carboxamide]",> 25,,,,0.045
"COc1ccc2nc(-c3ccccc3)c(C(=O)N[C@H]3N=C(c4ccccc4)c4ccccc4NC3=O)n2n1 [Example 111, 6-Methoxy-N-[(3S)-2-oxo-5-phenyl-1,3-dihydro-1,4-benzodiazepin-3-yl]-2-phenylimidazo[1,2-b]pyridazine-3-carboxamide]",> 25,,,,0.048
"O=C(N[C@H]1N=C(c2ccccc2)c2cccc(F)c2NC1=O)c1c(-c2ccccc2F)nn2ccc(N3CCCC3)nc12 [Example 40, N-[(3S)-9-Fluoro-2-oxo-5-phenyl-1,3-dihydro-1,4-benzodiazepin-3-yl]-2-(2-fluorophenyl)-5-pyrrolidin-1-ylpyrazolo[1,5-a]pyrimidine-3-carboxamide]",> 25,,,,0.051
"COc1nc(C)ccc1-c1nn2cccnc2c1C(=O)N[C@H]1N=C(c2ccccc2)c2ccccc2NC1=O [Example 86, 2-(2-Methoxy-6-methylpyridin-3-yl)-N-[(3S)-2-oxo-5-phenyl-1,3-dihydro-1,4-benzodiazepin-3-yl]pyrazolo[1,5-a]pyrimidine-3-carboxamide]",> 25,,,,0.119
"CCOc1ccc2nc(-c3ccc(CC)nc3)c(C(=O)N[C@H]3N=C(c4ccccc4)c4cccc(F)c4NC3=O)n2n1 [Example 122, 6-Ethoxy-2-(6-ethylpyridin-3-yl)-N-[(3S)-9-fluoro-2-oxo-5-phenyl-1,3-dihydro-1,4-benzodiazepin-3-yl]imidazo[1,2-b]pyridazine-3-carboxamide]",> 25,,,,0.1
